Calls of active or inactive are those of the source. No cut-off for these calls is given here.
Assays:
[1] = Apparent permeability across basolateral to apical side in human Caco2 cells measured after 90 mins by LC-MS/MS analysis; conditions: Caco-2
[2] = Apparent permeability across apical to basolateral side in human Caco2 cells measured after 90 mins by LC-MS/MS analysis; conditions: Caco-2
[3] = target: PI3-kinase p110-alpha/p85-alpha (Homo sapiens, UniProt P42336); test: Inhibition of recombinant human N-terminal FLAG-tagged full-length p110alpha/human p85alpha expressed in Sf9 insect cells using PIP2 as substrate by kinase-glo assay
Chain of PI3-kinase p110-alpha/p85-alpha (P27986 whole entry): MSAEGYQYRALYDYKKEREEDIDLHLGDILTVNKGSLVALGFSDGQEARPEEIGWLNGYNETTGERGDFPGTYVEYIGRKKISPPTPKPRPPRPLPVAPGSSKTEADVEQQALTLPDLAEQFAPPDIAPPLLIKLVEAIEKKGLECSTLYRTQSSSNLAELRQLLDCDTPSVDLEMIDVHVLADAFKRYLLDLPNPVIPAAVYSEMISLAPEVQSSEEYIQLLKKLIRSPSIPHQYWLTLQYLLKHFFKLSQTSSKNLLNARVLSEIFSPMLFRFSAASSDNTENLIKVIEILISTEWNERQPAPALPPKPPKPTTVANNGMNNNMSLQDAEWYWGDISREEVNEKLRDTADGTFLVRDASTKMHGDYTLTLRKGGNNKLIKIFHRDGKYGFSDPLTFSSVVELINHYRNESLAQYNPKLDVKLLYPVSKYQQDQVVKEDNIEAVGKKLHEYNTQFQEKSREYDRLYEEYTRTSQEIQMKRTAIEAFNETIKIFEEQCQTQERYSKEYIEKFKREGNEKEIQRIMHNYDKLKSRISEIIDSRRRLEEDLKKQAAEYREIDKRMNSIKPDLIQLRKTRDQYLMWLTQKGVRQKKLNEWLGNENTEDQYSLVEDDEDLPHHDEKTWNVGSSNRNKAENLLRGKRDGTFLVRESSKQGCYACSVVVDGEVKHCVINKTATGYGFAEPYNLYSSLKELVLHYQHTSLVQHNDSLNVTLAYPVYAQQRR
Chain of PI3-kinase p110-alpha/p85-alpha (P42336 whole entry): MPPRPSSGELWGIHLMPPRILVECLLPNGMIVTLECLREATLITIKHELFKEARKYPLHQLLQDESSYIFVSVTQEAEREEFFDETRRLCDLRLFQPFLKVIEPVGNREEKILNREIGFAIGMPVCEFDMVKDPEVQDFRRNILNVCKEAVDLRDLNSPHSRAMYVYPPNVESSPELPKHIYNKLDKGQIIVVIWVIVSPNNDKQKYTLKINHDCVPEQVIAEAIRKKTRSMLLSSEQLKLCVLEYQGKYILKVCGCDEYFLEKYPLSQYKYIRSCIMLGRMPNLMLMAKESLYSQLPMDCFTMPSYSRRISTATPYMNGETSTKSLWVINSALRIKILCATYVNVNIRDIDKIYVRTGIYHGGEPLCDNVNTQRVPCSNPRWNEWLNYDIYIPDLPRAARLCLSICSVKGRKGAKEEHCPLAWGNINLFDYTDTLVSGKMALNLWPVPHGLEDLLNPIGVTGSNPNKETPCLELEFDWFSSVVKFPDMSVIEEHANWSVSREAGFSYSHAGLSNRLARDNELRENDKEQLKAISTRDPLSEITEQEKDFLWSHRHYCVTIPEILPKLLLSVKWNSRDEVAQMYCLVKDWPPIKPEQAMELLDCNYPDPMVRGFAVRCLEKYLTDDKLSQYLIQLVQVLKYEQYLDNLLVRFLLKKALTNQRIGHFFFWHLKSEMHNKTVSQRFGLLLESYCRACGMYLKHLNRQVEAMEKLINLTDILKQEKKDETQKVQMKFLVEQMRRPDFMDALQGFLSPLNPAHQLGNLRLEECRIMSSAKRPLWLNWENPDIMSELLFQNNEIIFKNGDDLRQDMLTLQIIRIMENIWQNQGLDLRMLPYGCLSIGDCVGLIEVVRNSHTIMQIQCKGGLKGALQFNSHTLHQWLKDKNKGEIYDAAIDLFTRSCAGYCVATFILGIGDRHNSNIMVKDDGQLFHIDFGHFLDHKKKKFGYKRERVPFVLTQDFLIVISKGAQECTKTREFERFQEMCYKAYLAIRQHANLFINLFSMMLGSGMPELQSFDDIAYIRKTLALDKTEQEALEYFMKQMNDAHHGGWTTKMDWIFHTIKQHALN

[4] = Antifibrotic activity against mouse Mlg2908 cells assessed as reduction in cell viability measured after 72 hrs by MTT assay; assay type: functional, cell-based
[5] = Volume of distribution at steady state in ICR mouse at 0.5 mg/kg, iv by LC-MS/SM analysis; assay type: ADME, organism-based; conditions: in vivo, read-out: Vdss
Mus musculus [6] = organism: Mus musculus; test: Inhibition of class 1 PI3K in mouse Mlg2908 cells assessed as reduction in S6RP phosphorylation measured after 3 hrs by Western blot analysis; assay type: cell-based
Mus musculus [7] = organism: Mus musculus; test: Inhibition of class 1 PI3K in mouse Mlg2908 cells assessed as reduction in AKT phosphorylation at S473 residue measured after 3 hrs by Western blot analysis; assay type: cell-based
[8] = Clearance in ICR mouse at 0.5 mg/kg, iv by LC-MS/SM analysis; assay type: ADME, organism-based; conditions: in vivo
[9] = target: PI3-kinase p110-delta/p85-alpha (Homo sapiens, UniProt O00329); test: Inhibition of recombinant human N-terminal GST-tagged full-length p110delta/human p85alpha expressed in Sf9 insect cells using PIP2 as substrate by ADP-glo assay
Chain of PI3-kinase p110-delta/p85-alpha (P27986 whole entry): as the sequence (P27986 whole entry) above
Chain of PI3-kinase p110-delta/p85-alpha (O00329 whole entry): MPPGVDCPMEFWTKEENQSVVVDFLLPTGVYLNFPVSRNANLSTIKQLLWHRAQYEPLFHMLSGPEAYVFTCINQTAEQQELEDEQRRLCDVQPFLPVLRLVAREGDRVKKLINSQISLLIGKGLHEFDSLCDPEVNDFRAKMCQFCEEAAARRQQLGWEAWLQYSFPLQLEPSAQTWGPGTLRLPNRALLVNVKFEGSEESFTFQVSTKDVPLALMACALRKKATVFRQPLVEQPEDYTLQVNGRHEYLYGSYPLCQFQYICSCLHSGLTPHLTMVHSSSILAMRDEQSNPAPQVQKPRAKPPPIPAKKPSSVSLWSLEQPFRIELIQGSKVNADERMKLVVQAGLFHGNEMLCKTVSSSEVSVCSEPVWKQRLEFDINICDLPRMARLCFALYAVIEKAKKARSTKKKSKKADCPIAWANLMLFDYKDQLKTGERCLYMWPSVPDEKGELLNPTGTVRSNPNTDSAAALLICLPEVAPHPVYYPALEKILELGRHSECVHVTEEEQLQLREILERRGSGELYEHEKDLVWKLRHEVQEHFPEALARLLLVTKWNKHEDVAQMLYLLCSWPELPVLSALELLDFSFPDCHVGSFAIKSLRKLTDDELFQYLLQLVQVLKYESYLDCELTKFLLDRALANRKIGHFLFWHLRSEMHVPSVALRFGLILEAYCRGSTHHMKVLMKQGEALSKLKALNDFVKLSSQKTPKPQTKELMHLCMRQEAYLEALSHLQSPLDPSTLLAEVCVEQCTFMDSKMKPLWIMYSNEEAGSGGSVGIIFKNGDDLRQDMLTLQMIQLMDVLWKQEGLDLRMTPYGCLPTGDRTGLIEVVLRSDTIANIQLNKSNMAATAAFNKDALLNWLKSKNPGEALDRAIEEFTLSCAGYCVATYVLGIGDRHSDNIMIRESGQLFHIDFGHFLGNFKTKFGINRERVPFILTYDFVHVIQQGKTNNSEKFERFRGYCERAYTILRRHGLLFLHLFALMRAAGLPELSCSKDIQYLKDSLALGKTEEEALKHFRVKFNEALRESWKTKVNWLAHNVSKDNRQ

[10] = AUC (0 to infinity) in ICR mouse at 0.5 mg/kg, iv by LC-MS/SM analysis; assay type: ADME, organism-based; parameters: dose 0.5 mg/kg, time infinity, route intravenous; conditions: in vivo
[11] = Half life in ICR mouse at 5 mg/kg, po by LC-MS/SM analysis; assay type: ADME, organism-based; conditions: in vivo
Mus musculus [12] = organism: Mus musculus; test: Inhibition of class 1 PI3K in mouse Mlg2908 cells assessed as reduction in AKT phosphorylation at T308 residue measured after 3 hrs by Western blot analysis; assay type: cell-based
PI3K p110 beta/p85 alpha = PI3K p110 beta/p85 alpha (Homo sapiens, UniProt P42338); test: Inhibition of recombinant human N-terminal FLAG-tagged full-length p110beta/human p85alpha expressed in Sf9 insect cells using PIP2 as substrate by ADP-glo assay
Chain of PI3K p110 beta/p85 alpha (P27986 whole entry): as the sequence (P27986 whole entry) above
Chain of PI3K p110 beta/p85 alpha (P42338 whole entry): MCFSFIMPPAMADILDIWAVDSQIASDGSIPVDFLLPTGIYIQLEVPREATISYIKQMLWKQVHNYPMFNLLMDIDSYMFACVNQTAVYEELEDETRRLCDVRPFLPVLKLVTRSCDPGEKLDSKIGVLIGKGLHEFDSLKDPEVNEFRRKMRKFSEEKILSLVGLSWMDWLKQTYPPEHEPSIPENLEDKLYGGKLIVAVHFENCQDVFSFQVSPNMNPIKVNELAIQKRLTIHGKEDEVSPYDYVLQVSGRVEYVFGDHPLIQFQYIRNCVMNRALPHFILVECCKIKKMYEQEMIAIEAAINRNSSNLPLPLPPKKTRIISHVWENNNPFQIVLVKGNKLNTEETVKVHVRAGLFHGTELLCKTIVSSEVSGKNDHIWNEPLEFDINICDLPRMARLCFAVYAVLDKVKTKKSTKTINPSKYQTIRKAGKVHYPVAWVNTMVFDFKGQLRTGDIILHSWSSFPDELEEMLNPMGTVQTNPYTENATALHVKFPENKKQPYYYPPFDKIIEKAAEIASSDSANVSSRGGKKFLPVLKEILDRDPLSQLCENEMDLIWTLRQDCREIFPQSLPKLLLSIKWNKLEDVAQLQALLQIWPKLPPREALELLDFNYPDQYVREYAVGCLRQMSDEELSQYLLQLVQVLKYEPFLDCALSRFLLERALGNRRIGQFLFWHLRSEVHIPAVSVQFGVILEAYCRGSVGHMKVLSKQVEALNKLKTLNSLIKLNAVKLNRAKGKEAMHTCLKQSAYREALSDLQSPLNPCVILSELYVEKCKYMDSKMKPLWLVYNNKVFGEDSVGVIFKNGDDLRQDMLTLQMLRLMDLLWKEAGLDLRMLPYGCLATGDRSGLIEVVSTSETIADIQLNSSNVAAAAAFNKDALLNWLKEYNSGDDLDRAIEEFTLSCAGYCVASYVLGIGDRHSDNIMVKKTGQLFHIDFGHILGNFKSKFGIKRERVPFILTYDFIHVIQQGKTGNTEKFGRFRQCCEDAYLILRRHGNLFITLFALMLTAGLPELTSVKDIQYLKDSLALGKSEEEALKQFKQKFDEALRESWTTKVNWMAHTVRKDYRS

[13] = Half life in ICR mouse at 0.5 mg/kg, iv by LC-MS/SM analysis; assay type: ADME, organism-based; conditions: in vivo
[14] = Cmax in ICR mouse at 5 mg/kg, po by LC-MS/SM analysis; assay type: ADME, organism-based; parameters: dose 5 mg/kg, route oral; conditions: in vivo
[15] = AUC (0 to infinity) in ICR mouse at 5 mg/kg, po by LC-MS/SM analysis; assay type: ADME, organism-based; parameters: dose 5 mg/kg, route oral, time infinity; conditions: in vivo
[16] = Oral bioavailability in ICR mouse at 5 mg/kg by LC-MS/SM analysis; assay type: ADME, organism-based; conditions: in vivo
[17] = target: Phosphatidylinositol 4,5-bisphosphate 3-kinase catalytic subunit gamma isoform (Homo sapiens, UniProt P48736); test: Inhibition of recombinant human N-terminal His-tagged full-length p120gamma expressed in Sf9 insect cells using PIP2 as substrate by ADP-glo assay
Chain of Phosphatidylinositol 4,5-bisphosphate 3-kinase catalytic subunit gamma isoform (P48736 whole entry, canonical isoform): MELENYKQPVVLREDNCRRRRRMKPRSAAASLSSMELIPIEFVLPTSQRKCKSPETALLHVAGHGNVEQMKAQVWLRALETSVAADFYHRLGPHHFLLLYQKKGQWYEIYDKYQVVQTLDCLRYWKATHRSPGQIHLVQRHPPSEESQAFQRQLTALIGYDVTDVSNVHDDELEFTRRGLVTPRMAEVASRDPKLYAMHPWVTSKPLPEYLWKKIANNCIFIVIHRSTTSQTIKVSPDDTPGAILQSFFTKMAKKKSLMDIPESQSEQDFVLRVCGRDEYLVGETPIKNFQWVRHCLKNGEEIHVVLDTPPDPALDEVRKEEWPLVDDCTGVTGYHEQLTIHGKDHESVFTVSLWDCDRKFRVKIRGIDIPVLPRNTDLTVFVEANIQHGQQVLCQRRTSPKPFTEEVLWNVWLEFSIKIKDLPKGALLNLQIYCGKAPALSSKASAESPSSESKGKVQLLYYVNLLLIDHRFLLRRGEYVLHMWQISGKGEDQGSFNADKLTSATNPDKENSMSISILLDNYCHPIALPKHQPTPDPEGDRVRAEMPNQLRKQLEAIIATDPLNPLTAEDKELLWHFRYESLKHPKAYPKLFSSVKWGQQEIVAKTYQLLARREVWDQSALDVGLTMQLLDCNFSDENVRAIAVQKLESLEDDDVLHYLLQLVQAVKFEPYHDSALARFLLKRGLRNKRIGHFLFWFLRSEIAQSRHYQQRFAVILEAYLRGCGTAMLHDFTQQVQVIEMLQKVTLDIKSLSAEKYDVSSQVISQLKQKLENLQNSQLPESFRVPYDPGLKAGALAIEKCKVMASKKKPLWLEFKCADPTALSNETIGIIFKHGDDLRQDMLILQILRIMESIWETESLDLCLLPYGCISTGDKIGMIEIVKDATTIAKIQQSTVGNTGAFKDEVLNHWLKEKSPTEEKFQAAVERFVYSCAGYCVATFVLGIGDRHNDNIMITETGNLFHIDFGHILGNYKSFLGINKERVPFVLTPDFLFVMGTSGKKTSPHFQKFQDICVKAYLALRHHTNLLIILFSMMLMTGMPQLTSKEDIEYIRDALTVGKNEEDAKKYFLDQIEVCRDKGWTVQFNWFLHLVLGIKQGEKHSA

Mus musculus [18] = organism: Mus musculus; test: Inhibition of class 1 PI3K in mouse Mlg2908 cells assessed as reduction in p70S6K phosphorylation measured after 3 hrs by Western blot analysis; assay type: cell-based
Mus musculus [19] = test: Antifibrotic activity in bleomycin-induced C57BL/6 mouse model of pulmonary fibrosis assessed as reduction in lung hydroxyproline level at 30 mg/kg, po administered thrice daily for 18 days starting from 10 days post-bleomycin challenge and measured post last dose; assay type: functional, organism-based
Mus musculus [20] = test: Antifibrotic activity in bleomycin-induced C57BL/6 mouse model of pulmonary fibrosis assessed as reduction in lung fibronectin level at 30 mg/kg, po administered thrice daily for 18 days starting from 10 days post-bleomycin challenge and measured post last dose by Western blot analysis; assay type: functional, organism-based
Mus musculus [21] = test: Antifibrotic activity in bleomycin-induced C57BL/6 mouse model of pulmonary fibrosis assessed as reduction in inspiratory capacity at 30 mg/kg, po administered thrice daily for 18 days starting from 10 days post-bleomycin challenge and measured post last dose; assay type: functional, organism-based
Mus musculus [22] = test: Antifibrotic activity in bleomycin-induced C57BL/6 mouse model of pulmonary fibrosis assessed as reduction in collagen fiber deposition at 30 mg/kg, po administered thrice daily for 18 days starting from 10 days post-bleomycin challenge and measured post last dose by Masson staining-based histopathological analysis; assay type: functional, organism-based
Mus musculus [23] = test: Antifibrotic activity in bleomycin-induced C57BL/6 mouse model of pulmonary fibrosis assessed as reduction in respiratory system elastance at 30 mg/kg, po administered thrice daily for 18 days starting from 10 days post-bleomycin challenge and measured post last dose; assay type: functional, organism-based
Mus musculus [24] = test: Antifibrotic activity in bleomycin-induced C57BL/6 mouse model of pulmonary fibrosis assessed as reduction in respiratory system compliance at 30 mg/kg, po administered thrice daily for 18 days starting from 10 days post-bleomycin challenge and measured post last dose; assay type: functional, organism-based
Mus musculus [25] = test: Antifibrotic activity in bleomycin-induced C57BL/6 mouse model of pulmonary fibrosis assessed as reduction in lung alpha-SMA level at 30 mg/kg, po administered thrice daily for 18 days starting from 10 days post-bleomycin challenge and measured post last dose by immunostaining-based histopathological analysis; assay type: functional, organism-based
Mus musculus [26] = test: Antifibrotic activity in bleomycin-induced C57BL/6 mouse model of pulmonary fibrosis assessed as reduction in respiratory system resistance at 30 mg/kg, po administered thrice daily for 18 days starting from 10 days post-bleomycin challenge and measured post last dose; assay type: functional, organism-based
Mus musculus [27] = test: Antifibrotic activity in bleomycin-induced C57BL/6 mouse model of pulmonary fibrosis assessed as reduction in lung damage at 30 mg/kg, po administered thrice daily for 18 days starting from 10 days post-bleomycin challenge and measured post last dose by H and E staining-based histopathological analysis; assay type: functional, organism-based
Mus musculus [28] = test: Antifibrotic activity in bleomycin-induced C57BL/6 mouse model of pulmonary fibrosis assessed as reduction in lung index at 30 mg/kg, po administered thrice daily for 18 days starting from 10 days post-bleomycin challenge and measured post last dose; assay type: functional, organism-based

SMILES | Papp B→A at 1.5 h [1] | Papp A→B at 1.5 h [2] | IC50 [3] | IC50 [4] | also measured
COc1ncc(-c2cc(OCC3CC3)c3ncnc(C)c3c2)cc1NS(=O)(=O)c1ccc(F)cc1F | 23 ×10⁻⁶ cm/s | 30 ×10⁻⁶ cm/s | 1.5 nM | 20 nM | 
COc1ncc(-c2cc(O[C@@H]3CCOC3)c3ncnc(C)c3c2)cc1NS(=O)(=O)c1ccc(F)cc1F | 37 ×10⁻⁶ cm/s | 38 ×10⁻⁶ cm/s | 0.88 nM | 10 nM | Vd [5]: 0.5 L/kg; inhibition (Mus musculus [6]): Dose-dependent effect; inhibition (Mus musculus [7]): Dose-dependent effect; clearance [8]: 16 mL/min/kg; IC50 [9]: 0.35 nM; AUC(0-inf) [10]: 520 ng·h/mL; half-life [11]: 4.08 h; inhibition (Mus musculus [12]): Dose-dependent effect; IC50 (PI3K p110 beta/p85 alpha): 0.34 nM; half-life [13]: 0.36 h; Cmax [14]: 1440 ng/mL; AUC(0-inf) [15]: 3170 ng·h/mL; bioavailability [16]: 58.7%; IC50 [17]: 1.5 nM; inhibition (Mus musculus [18]): Dose-dependent effect
COc1ncc(-c2cc(OC3CCN(C)CC3)c3ncnc(C)c3c2)cc1NS(=O)(=O)c1ccc(F)cc1F | 46 ×10⁻⁶ cm/s | 4.5 ×10⁻⁶ cm/s | 2.1 nM | 230 nM | 
COc1ncc(-c2cc(OC(C)C)c3ncnc(C)c3c2)cc1NS(=O)(=O)c1ccc(F)cc1F | 22 ×10⁻⁶ cm/s | 32 ×10⁻⁶ cm/s | 2 nM | 13 nM | 
C[C@H](Nc1ncnc2nc[nH]c12)c1cc2cccc(Cl)c2c(=O)n1-c1ccccc1 [DUVELISIB] |  |  |  | 6900 nM | 
COc1ncc(-c2cc(OC)c3ncnc(C)c3c2)cc1NS(=O)(=O)c1ccc(F)cc1F | 31 ×10⁻⁶ cm/s | 35 ×10⁻⁶ cm/s | 1.2 nM | 130 nM | 
Cc1nc(NC(=O)N2CCC[C@H]2C(N)=O)sc1-c1ccnc(C(C)(C)C(F)(F)F)c1 [ALPELISIB] |  |  |  | 3500 nM | 
COc1ncc(-c2cc(OC3CCOCC3)c3nc(N)nc(C)c3c2)cc1NS(=O)(=O)c1ccc(F)cc1F |  |  |  | 140 nM | 
COc1ncc(-c2cc(OCC3CCN(C)CC3)c3ncnc(C)c3c2)cc1NS(=O)(=O)c1ccc(F)cc1F | 38 ×10⁻⁶ cm/s | 8.8 ×10⁻⁶ cm/s | 1.6 nM | 81 nM | 
COc1ccc(-c2cc(OC3CCOCC3)c3ncnc(C)c3c2)cn1 | 31 ×10⁻⁶ cm/s | 39 ×10⁻⁶ cm/s | 31 nM | 17000 nM | 
COc1ncc(-c2cc(OC3CCCC3)c3ncnc(C)c3c2)cc1NS(=O)(=O)c1ccc(F)cc1F | 17 ×10⁻⁶ cm/s | 28 ×10⁻⁶ cm/s | 1 nM | 15 nM | 
COc1ncc(-c2ccc3nccc(-c4ccnnc4)c3c2)cc1NS(=O)(=O)c1ccc(F)cc1F [OMIPALISIB] |  |  |  | 4 nM | 
COc1ncc(-c2cc(OC3CCC3)c3ncnc(C)c3c2)cc1NS(=O)(=O)c1ccc(F)cc1F | 30 ×10⁻⁶ cm/s | 44 ×10⁻⁶ cm/s | 1 nM | 3 nM | 
COc1ncc(-c2cc(OCCN(C)C)c3ncnc(C)c3c2)cc1NS(=O)(=O)c1ccc(F)cc1F | 51 ×10⁻⁶ cm/s | 10 ×10⁻⁶ cm/s | 5.3 nM | 460 nM | 
COc1ncc(-c2cc(OC(F)F)c3ncnc(C)c3c2)cc1NS(=O)(=O)c1ccc(F)cc1F | 17 ×10⁻⁶ cm/s | 34 ×10⁻⁶ cm/s | 1.7 nM | 130 nM | 
COc1ncc(-c2cc(OC3CCCCC3)c3ncnc(C)c3c2)cc1NS(=O)(=O)c1ccc(F)cc1F | 21 ×10⁻⁶ cm/s | 16 ×10⁻⁶ cm/s | 1.5 nM | 33 nM | 
C[C@H](NC(=O)c1c(N)nn2cccnc12)c1cc2cccc(C#Cc3cnn(C)c3)c2c(=O)n1-c1ccccc1 [EGANELISIB] |  |  |  | 980 nM | 
Cc1c(Cn2c(C)nc3c(C(=O)O)cc(N4CCOCC4)cc32)cccc1C(F)(F)F [GSK-2636771] |  |  |  | > 20000 nM | 
COc1ncc(-c2cc(OCC3CCOCC3)c3ncnc(C)c3c2)cc1NS(=O)(=O)c1ccc(F)cc1F | 33 ×10⁻⁶ cm/s | 31 ×10⁻⁶ cm/s | 0.92 nM | 8 nM | 
COc1ncc(-c2cc(OC3CCOC(C)(C)C3)c3ncnc(C)c3c2)cc1NS(=O)(=O)c1ccc(F)cc1F (stereo not given) | 22 ×10⁻⁶ cm/s | 31 ×10⁻⁶ cm/s | 0.89 nM | 2 nM | 
COc1ncc(-c2cc(OCC3CCOC3)c3ncnc(C)c3c2)cc1NS(=O)(=O)c1ccc(F)cc1F (stereo not given) | 39 ×10⁻⁶ cm/s | 34 ×10⁻⁶ cm/s | 0.95 nM | 4 nM | 
CC[C@H](Nc1ncnc2[nH]cnc12)c1nc2cccc(F)c2c(=O)n1-c1ccccc1 [IDELALISIB] |  |  |  | > 20000 nM | 
Cc1ccc(=O)n(-c2ccccc2)c1 |  |  |  |  | Activity (Mus musculus [19]): Active; Activity (Mus musculus [20]): Active; Activity (Mus musculus [21]): Active; Activity (Mus musculus [22]): Active; Activity (Mus musculus [23]): Active; Activity (Mus musculus [24]): Active; Activity (Mus musculus [25]): Active; Activity (Mus musculus [26]): Active; Activity (Mus musculus [27]): Active; Activity (Mus musculus [28]): Active
COc1ncc(-c2cc(OCCN3CCOCC3)c3ncnc(C)c3c2)cc1NS(=O)(=O)c1ccc(F)cc1F | 33 ×10⁻⁶ cm/s | 13 ×10⁻⁶ cm/s | 2.3 nM | 210 nM | 
COc1ncc(-c2cc(OCCN3CCCC3)c3ncnc(C)c3c2)cc1NS(=O)(=O)c1ccc(F)cc1F | 38 ×10⁻⁶ cm/s | 7.5 ×10⁻⁶ cm/s | 6.8 nM | 1300 nM | 

Source: ChEMBL document CHEMBL4321792, “Discovery of 4-Methylquinazoline Based PI3K Inhibitors for the Potential Treatment of Idiopathic Pulmonary Fibrosis” (J Med Chem, 2019)
